“And” between values parts separate entries of the source, which are not always exact repeats. Equal values may be shown once.
Assays:
T47D cells = experiment: T47D cell proliferation assay (BrdU incorporation); format: cell-based; conditions: decrease in trimegestone induced BrdU incorporation, individual experiments
Description: 3. T47D Cell Proliferation Assay
The objective of this assay is the determination of progestational and antiprogestational potency by using a cell proliferation assay in T47D cells. A compound's effect on DNA synthesis in T47D cells is measured.
DMEM:F12(1:1) (GIBCO, BRL) supplemented with 10% (v/v) fetal bovine serum (not heat-inactivated), 100 U/ml penicillin, […], and 2 mM GlutaMax (GIBCO, BRL).
Minimum Essential Medium (MEM) (#51200-038GIBCO, BRL) phenol red-free supplemented with 0.5% charcoal stripped fetal bovine serum, 100 U/ml penicillin, […] streptomycin, and 2 mM GlutaMax (GIBCO, BRL). […]
At the end of BrdU labeling, the medium is removed and BrdU incorporation is measured using a cell proliferation ELISA kit (#RPN 250, Amersham Life Science) according to manufacturer's instructions. […] Then 25 μl of 1 M sulfuric acid is added to each well to stop color reaction and optical density is read in a plate reader at 450 nm within 5 min.
Square root-transformed data are used for analysis of variance and nonlinear dose response curve fitting for both agonist and antagonist modes. […] EC50 or IC50 values are calculated from the retransformed values.
Trimegestone and medroxyprogesterone acetate (MPA) are reference progestins and RU486 is the reference antiprogestin. All reference compounds are run in fill dose-response curves and the EC50 or IC50 values are calculated.

[1] = system: rat uterine decidualization; experiment: Rat decidualization assay; conditions: ovariectomized rats, s.c.; for Estimated average EC50: average of dose-response curves; for EC50: uterine wet weight (decidual response), individual studies

CC#C[C@]1(O)CC[C@H]2[C@@H]3CCC4=CC(=O)CCC4=C3[C@@H](c3ccc(N(C)C)cc3)C[C@@]21C [RU486]
IC50 (T47D cells): 16 pM and 18 pM

C#C[C@]1(O)CC[C@H]2[C@@H]3CCC4=CC(=O)CC[C@@H]4[C@H]3CC[C@@]21CC [Levonorgestrel, levonorgestrel]
Estimated average EC50 [1]: 0.10 mg/kg. s.c. | EC50 [1]: 0.08 mg/kg, s.c. and 0.12 mg/kg, s.c. and 0.09 mg/kg, s.c. (2×)

C#C[C@]1(O)CC[C@H]2[C@@H]3CCC4=CC(=O)CC[C@@H]4[C@H]3C(=C)C[C@@]21CC [3-Ketodesogestrel, 3-ketodesogestrel]
Estimated average EC50 [1]: 0.10 mg/kg. s.c. | EC50 [1]: 0.10 mg/kg, s.c. and 0.06 mg/kg, s.c. and 0.11 mg/kg, s.c.

CCC1C(=O)Nc2ccc(-c3cccc(Cl)c3)cc21 (stereo not shown) [Example 6, 5-(3Chloro-phenyl)-3-ethyl-1,3-dihydro-indol-2-one]
melting point: 100 to 101 °C

O=C1CCC(c2cc(F)cc(Br)c2)CC12CNc1ccccc12 (stereo not shown) [Example 28, 5-(3-Bromo-5-fluorophenyl)spiro[cyclohexane-1,3-[3H]indol]-2(1′H)-one]
melting point: 194 to 196 °C

Source: patent publication US6462032B1, “Cyclic regimens utilizing indoline derivatives” (Wyeth, priority 1999, dated 2002)
